Like-named read-outs stand apart in the source and are kept apart here.
Molecular target: T1, P2X7 receptor (Homo sapiens, UniProt Q99572)
T1 construct: endogenous in cells; host or cells: THP-1 cells differentiated with LPS and IFN-γ
T1 sequence (Q99572 1-595): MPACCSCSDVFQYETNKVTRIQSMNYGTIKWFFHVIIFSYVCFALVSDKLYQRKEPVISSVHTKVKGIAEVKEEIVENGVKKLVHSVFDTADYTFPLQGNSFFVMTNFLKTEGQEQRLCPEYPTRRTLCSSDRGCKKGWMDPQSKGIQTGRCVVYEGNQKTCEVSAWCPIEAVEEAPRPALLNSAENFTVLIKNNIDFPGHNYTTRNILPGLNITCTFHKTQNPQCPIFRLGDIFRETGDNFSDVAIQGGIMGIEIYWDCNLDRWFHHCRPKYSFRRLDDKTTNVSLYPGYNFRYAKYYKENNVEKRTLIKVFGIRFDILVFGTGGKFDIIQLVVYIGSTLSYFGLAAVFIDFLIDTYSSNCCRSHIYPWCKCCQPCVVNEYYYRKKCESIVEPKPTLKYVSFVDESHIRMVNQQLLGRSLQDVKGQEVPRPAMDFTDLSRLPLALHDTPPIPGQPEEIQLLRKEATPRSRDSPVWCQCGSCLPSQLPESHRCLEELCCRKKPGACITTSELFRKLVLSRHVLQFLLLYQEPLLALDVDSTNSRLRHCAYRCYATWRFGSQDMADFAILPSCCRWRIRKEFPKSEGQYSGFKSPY
Test: IL-1β release assay in differentiated THP-1 cells stimulated with BzATP (Example 9)
Type: cell-based
Settings: for inhibition at 0.3 µM: 0.3 μM concentration; for inhibition at 0.3 µM / inhibition at 0.1 µM: read-out: IL-1β % Inhib. @ 0.3 or 0.1 μM; for IC50: four parameter logistic fit; for inhibition at 0.1 µM: 0.1 μM concentration
Procedure: The cells are then pretreated for 30 minutes with the compound of interest at the appropriate concentration in RPMI media containing 100 IU/mL penicillin, 100 ug/mL streptomycin. […] 30 uL of cell supernatant is then collected and IL-1β levels determined via ELISA (R&D systems Cat. # HSLB50) according to manufacturer's recommendations using the Tecan Safire plate reader. Background adjusted IL-1β levels of drug treated and non-treated cells are used to calculate the percent inhibition.
The compounds set forth in Table 1 were tested for activity in a cellular model as described herein. […] Measurements were made and IC50 values, presented in Table 2, below, were determined by fitting the data to a four parameter logistic equation using GraphPad Prism software (GraphPad Software, Inc). The equation may be expressed by the following formula:
Y=Bottom+(Top-Bottom)/(1+10̂((Log EC50−X)*HillSlope))
Where X is the logarithm of concentration, Y is the response and Y starts at Bottom and goes to Top with a sigmoid shape.

Compound	inhibition at 0.3 µM [%]	IC50 (read-out: IL-1β IC50) [nM]	inhibition at 0.1 µM [%]	IC50 (IL-1β IC50 (nM)) [nM]
Cc1ncccc1-n1ccc2c(NC(=O)Cc3ccc(F)c(C(F)(F)F)c3)cccc2c1=O [ID 860]	> 76	13.9		
CC(C(=O)Nc1cccc2c(=O)n([C@H]3CCNC3)ccc12)c1ccc(Cl)cc1 (stereo partly drawn) [ID 823]	> 76	42.5		
CCOC(=O)N1CCC(n2ccc3c(NC(=O)Cc4ccc(OC)c(OC)c4)cccc3c2=O)CC1 [ID 783]			0 to 25	
Cc1ncccc1-n1ccc2c(NC(=O)C(C)c3cccc(C(F)(F)F)c3F)cccc2c1=O (stereo not drawn) [ID 862]	> 76	17.2		
CCOC(=O)N1CCC(n2ccc3c(NC(=O)c4ccc(C(C)(C)C)cc4)cccc3c2=O)CC1 [ID 773]			26 to 50	
O=C(CC1(O)CCCCCC1)Nc1cccc2c(=O)n(C3CCNCC3)ccc12 [ID 813]	0 to 25	760		
O=C(Cc1ccc(C(F)(F)F)cc1C(F)(F)F)Nc1cccc2c(=O)n(C3CC3)ccc12 [ID 880]	> 76	67.8		
CCOC(=O)N1CCC(n2ccc3c(NC(=O)c4ccc(Cl)cc4Cl)cccc3c2=O)CC1 [ID 762]			0 to 25	
COc1ccc(CC(=O)Nc2cccc3c(=O)n(-c4cc(C)on4)ccc23)c(OC)c1 [ID 739]			0 to 25	
O=C(Cc1ccc(Cl)c(F)c1)Nc1cccc2c(=O)n(-c3cccnc3F)ccc12 [ID 873]	> 76	31.4		
CCOC(=O)N1CCC(n2ccc3c(NC(=O)c4cc5ccccc5o4)cccc3c2=O)CC1 [ID 789]			0 to 25	
CCOC(=O)N1CCC(n2ccc3c(NC(=O)CCc4cccc(OC)c4)cccc3c2=O)CC1 [ID 753]			0 to 25	
CCOC(=O)N1CCC(n2ccc3c(NC(=O)CCCc4ccccc4)cccc3c2=O)CC1 [ID 788]			0 to 25	
O=C(Cc1ccc(Cl)c(C(F)(F)F)c1)Nc1cccc2c(=O)n(C3CCNCC3)ccc12 [ID 818]	> 76	99		
Cc1ncccc1-n1ccc2c(NC(=O)[C@@H](C)c3ccc(Cl)cc3)cccc2c1=O [ID 864]	> 76	111		
O=C(CC12CC3CC(CC(C3)C1)C2)Nc1cccc2c(=O)n(-c3cccnc3Oc3ccccc3F)ccc12 [ID 714]	> 76	4.09		
O=C(CC1CCCCCC1)Nc1cccc2c(=O)n(-c3cc[nH]n3)ccc12 [ID 844]	> 76	3.33		
CCOC(=O)N1CCC(n2ccc3c(NC(=O)Cc4cc(C)ccc4C)cccc3c2=O)CC1 [ID 755]			0 to 25	
O=C(Cc1ccc(Cl)c(Cl)c1)Nc1cccc2c(=O)n(C3CCNC3)ccc12 (stereo not drawn) [ID 815]	> 76	125		
O=C(CC12CC3CC(CC(C3)C1)C2)Nc1cccc2c(=O)n(-c3cnc4ccccc4c3)ccc12 [ID 706]	> 76	58		
O=C(CC12CC3CC(CC(C3)C1)C2)Nc1cccc2c(=O)n(-c3ccc(N4CCOCC4)nc3)ccc12 [ID 709]	> 76	25.6		

Compound	inhibition at 0.3 µM [%]	IC50 (read-out: IL-1β IC50) [nM]	inhibition at 0.1 µM [%]	IC50 (IL-1β IC50 (nM)) [nM]
Cc1cc(-n2ccc3c(NC(=O)C4C[C@@H]5CC[C@H]4C5)cccc3c2=O)no1 (stereo partly drawn) [ID 738]			0 to 25	
O=C(Cc1cccc(C(F)(F)F)c1F)Nc1cccc2c(=O)n(C3CN4CCC3CC4)ccc12 (stereo not drawn) [ID 845]	> 76	134		
CC(C(=O)Nc1cccc2c(=O)n(C3CCNCC3)ccc12)c1ccc(Cl)cc1 (stereo not drawn) [ID 817]	0 to 25	902		
Cc1ccc(CC(=O)Nc2cccc3c(=O)n(-c4cc(C)on4)ccc23)cc1 [ID 733]			0 to 25	
O=C(CC1(O)CCCCCC1)Nc1cccc2c(=O)n([C@H]3CCNC3)ccc12 [ID 849]	0 to 25	403		
Cc1cc(-n2ccc3c(NC(=O)c4ccc(CC(C)C)cc4)cccc3c2=O)no1 [ID 747]			0 to 25	
Cc1ccc2c(=O)n([C@H]3CCNC3)ccc2c1NC(=O)Cc1ccc(F)c(C(F)(F)F)c1 [ID 901]	> 76	11		
O=C(Cc1ccc(Cl)c(Cl)c1)Nc1cccc2c(=O)n(C3CCC3)ccc12 [ID 898]	> 76	23.6		
O=C(Cc1ccc(Cl)cc1F)Nc1cccc2c(=O)n(C3CN4CCC3CC4)ccc12 (stereo not drawn) [ID 846]	> 76	162		
Cc1ccncc1-n1ccc2c(NC(=O)CC34CC5CC(CC(C5)C3)C4)cccc2c1=O [ID 702]	> 76	0.177		
CCOC(=O)N1CCC(n2ccc3c(NC(=O)c4ccc(OC)c(Cl)c4)cccc3c2=O)CC1 [ID 756]			0 to 25	
Cc1cc(C)cc(CC(=O)Nc2cccc3c(=O)n(-c4cc(C)on4)ccc23)c1 [ID 737]			0 to 25	
CCOC(=O)N1CCC(n2ccc3c(NC(=O)Cc4cc(OC)ccc4OC)cccc3c2=O)CC1 [ID 780]			0 to 25	
CCOC(=O)N1CCC(n2ccc3c(NC(=O)c4ccc(C)c(Cl)c4)cccc3c2=O)CC1 [ID 793]			0 to 25	
O=C(CC1CCCCCC1)Nc1cccc2c(=O)n(C3CC3)ccc12 [ID 878]	> 76	2.21		
O=C(Cc1ccc(Cl)c(Cl)c1)Nc1cccc2c(=O)n([C@H]3CCNC3)ccc12 [ID 822]	> 76	31.3		
CCOC(=O)N1CCC(n2ccc3c(NC(=O)c4cccc(OCC)c4)cccc3c2=O)CC1 [ID 757]			0 to 25	
Cc1ncccc1-n1ccc2c(NC(=O)Cc3ccc(F)c(F)c3F)cccc2c1=O [ID 867]	> 76	40.5		
O=C(CC12CC3CC(CC(C3)C1)C2)Nc1cccc2c(=O)n(C3CN4CCC3CC4)ccc12 (stereo not drawn) [ID 850]	> 76			1.88
Cc1ncccc1-n1ccc2c(NC(=O)Cc3ccc(Cl)c(Cl)c3)cccc2c1=O [ID 869]	> 76	43.9		
Cc1cc(-n2ccc3c(NC(=O)CC4CC5CCC4C5)cccc3c2=O)no1 (stereo not drawn) [ID 735]			> 76	

Compound	inhibition at 0.3 µM [%]	IC50 (read-out: IL-1β IC50) [nM]	inhibition at 0.1 µM [%]	IC50 (IL-1β IC50 (nM)) [nM]
Cc1ccc(C)c(C(=O)Nc2cccc3c(=O)n(-c4cc(C)on4)ccc23)c1 [ID 722]			26 to 50	
CCOC(=O)N1CCC(n2ccc3c(NC(=O)CCc4ccccc4Cl)cccc3c2=O)CC1 [ID 758]			0 to 25	
CCOC(=O)N1CCC(n2ccc3c(NC(=O)c4cccc(Cl)c4C)cccc3c2=O)CC1 [ID 801]			0 to 25	
CCOC(=O)N1CCC(n2ccc3c(NC(=O)c4ccc5c(c4)OCCCO5)cccc3c2=O)CC1 [ID 799]			0 to 25	
CCOc1cccc(C(=O)Nc2cccc3c(=O)n(-c4cc(C)on4)ccc23)c1 [ID 717]			0 to 25	
O=C(CC12CC3CC(CC(C3)C1)C2)Nc1cccc2c(=O)n(-c3cc[nH]n3)ccc12 [ID 841]	> 76	0.295		
CCOC(=O)N1CCC(n2ccc3c(NC(=O)Cc4ccccc4C)cccc3c2=O)CC1 [ID 781]			0 to 25	
Cc1cc(-n2ccc3c(NC(=O)c4ccccc4Cl)cccc3c2=O)no1 [ID 719]			0 to 25	
CCOC(=O)N1CCC(n2ccc3c(NC(=O)Cc4cc(OC)cc(OC)c4)cccc3c2=O)CC1 [ID 791]			0 to 25	
CCOC(=O)N1CCC(n2ccc3c(NC(=O)c4ccccc4C)cccc3c2=O)CC1 [ID 764]			0 to 25	
CCOC(=O)N1CCC(n2ccc3c(NC(=O)c4ccc(C)cc4C)cccc3c2=O)CC1 [ID 766]			0 to 25	
CCOC(=O)N1CCC(n2ccc3c(NC(=O)Cc4ccccc4OC)cccc3c2=O)CC1 [ID 779]			0 to 25	
O=C(CC12CC3CC(CC(C3)C1)C2)Nc1cccc2c(=O)n(-c3cccnc3N3CCOCC3)ccc12 [ID 712]	> 76	0.384		
CCOC(=O)N1CCC(n2ccc3c(NC(=O)Cc4cccc(OC)c4)cccc3c2=O)CC1 [ID 782]			0 to 25	
CC12CC3CC(C)(C1)CC(CC(=O)Nc1cccc4c(=O)n(-c5cccnc5)ccc14)(C3)C2 [ID 701]	> 76	3.22		
Cc1cc(-n2ccc3c(NC(=O)CCc4cccc(Cl)c4)cccc3c2=O)no1 [ID 746]			51 to 75	
CCOC(=O)N1CCC(n2ccc3c(NC(=O)c4ccc(-c5ccccc5)o4)cccc3c2=O)CC1 [ID 752]			0 to 25	
O=C(Cc1ccc(C(F)(F)F)c(F)c1)Nc1cccc2c(=O)n(C3CC3)ccc12 [ID 879]	> 76	6.79		
Cc1cc(-n2ccc3c(NC(=O)c4cccc(C)c4Cl)cccc3c2=O)no1 [ID 743]			0 to 25	
